US10494380B2, “Nitrogen-containing tricyclic derivatives having HIV replication inhibitory activity” (priority 2015, dated 2019)

Assays:
CYP3A4 = CYP3A4 (Homo sapiens (Human), UniProt P08684); assay: CYP3A4 (MDZ) MBI test (Test Example 6); details: pooled human liver microsomes, midazolam 1-hydroxylation, preincubation 0 or 30 min
[1] = test system: sheep red blood cells (RBC); assay: Photohemolysis test (Test Example 13); assay type: cell-based; details: 0.0008 to 0.1 w/v %, 10 J/cm2 UV-irradiation (290-400 nm)
Procedure, shortened: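 Sheep RBC suspension (2.5 v/v %) with compound at 0.0008–0.1 w/v % exposed to 10 J/cm2 UV-A/UV-B (290–400 nm), then centrifuged. Supernatant absorbance at 540 nm gave photohemolysis index (PI) and at 630 nm met-Hb formation. Negative if PI<10% and 630 nm change <0.05; otherwise positive.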

CYP2C9 = CYP2C9 (Homo sapiens (Human), UniProt P11712); assay: CYP inhibition assay, tolbutamide methyl-hydroxylation (Test Example 4); assay type: in vitro ADME; details: pooled human hepatic microsome, 100 μmol/L tolbutamide, 15 minutes, 37° C.
CYP2C9, sequence (P11712 whole entry): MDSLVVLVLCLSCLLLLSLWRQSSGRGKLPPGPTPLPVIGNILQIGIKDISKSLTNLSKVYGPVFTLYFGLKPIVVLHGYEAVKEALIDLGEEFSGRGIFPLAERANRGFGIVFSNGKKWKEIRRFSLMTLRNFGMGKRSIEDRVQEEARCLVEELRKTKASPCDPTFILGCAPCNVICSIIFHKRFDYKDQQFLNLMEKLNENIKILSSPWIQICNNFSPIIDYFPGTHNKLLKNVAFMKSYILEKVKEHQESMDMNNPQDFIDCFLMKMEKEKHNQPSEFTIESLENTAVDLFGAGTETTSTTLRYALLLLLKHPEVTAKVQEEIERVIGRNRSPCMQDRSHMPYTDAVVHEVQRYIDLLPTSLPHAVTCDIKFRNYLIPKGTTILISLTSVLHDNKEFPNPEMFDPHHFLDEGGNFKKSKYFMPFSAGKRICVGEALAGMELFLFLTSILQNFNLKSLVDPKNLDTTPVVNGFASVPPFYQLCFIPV
Procedure, shortened: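 Pooled human liver microsomes (0.2 mg protein/mL) with 100 µmol/L tolbutamide in 50 mmol/L HEPES, test compound at 1, 5, 10, 20 µmol/L; NADPH-started, 15 min at 37 °C. Hydroxytolbutamide quantified by LC/MS/MS to assess inhibition of metabolite formation.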

HIV = assay type: cell-based; details: EC50 in the presence of human serum (25%) versus without human serum, MT-4 cells
Procedure, shortened: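 HIV-infected MT-4 cells (3×10^4/well, infected 1 h at 37° C) are grown 4 days with compound that was first mixed 1 h with human serum or with medium only. Potency shift is the EC50 with serum divided by the EC50 without serum.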

HIV (HTLV-IIIB strain) = assay: HIV replication inhibition assay (Test Example 1; MT-4 cells, MTT); assay type: cell-based; details: HIV (HTLV-IIIB strain), MT-4 cells, MTT, four days; for EC50: read-out: EC50; for EC90: read-out: EC90
Procedure, shortened: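 MT-4 cells (2.5×10^4/well) were infected with HIV HTLV-IIIB (60 pfu) in the presence of compound and cultured 4 days at 37 °C. Cell viability was read by MTT reduction (OD 560/690 nm). EC50 and EC90 are the concentrations inhibiting virus-induced cytotoxicity by 50% and 90%.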

[2] = test system: T125A mutant virus (HIV-1 NL-432 recombinant molecular clone, IN gene); assay: HIV replication inhibition assay against integrase 124/125 mutant virus (Test Example 2); assay type: cell-based; details: T125A mutant virus (HIV-1 NL-432 IN gene), MT-4 cells, MTT; read-out: EC50 against T125A mutant virus
Procedure, shortened: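 EC50 is the compound concentration blocking half of virus-induced cell death, measured by MTT (OD 560 nm, 690 nm reference) after 4 days at 37 °C. Integrase 124/125 mutant NL-432 virus from transfected 293T cells (60 pfu) was added to 2.5×10^4 MT-4 cells with compound.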

CYP3A4, sequence (P08684 whole entry): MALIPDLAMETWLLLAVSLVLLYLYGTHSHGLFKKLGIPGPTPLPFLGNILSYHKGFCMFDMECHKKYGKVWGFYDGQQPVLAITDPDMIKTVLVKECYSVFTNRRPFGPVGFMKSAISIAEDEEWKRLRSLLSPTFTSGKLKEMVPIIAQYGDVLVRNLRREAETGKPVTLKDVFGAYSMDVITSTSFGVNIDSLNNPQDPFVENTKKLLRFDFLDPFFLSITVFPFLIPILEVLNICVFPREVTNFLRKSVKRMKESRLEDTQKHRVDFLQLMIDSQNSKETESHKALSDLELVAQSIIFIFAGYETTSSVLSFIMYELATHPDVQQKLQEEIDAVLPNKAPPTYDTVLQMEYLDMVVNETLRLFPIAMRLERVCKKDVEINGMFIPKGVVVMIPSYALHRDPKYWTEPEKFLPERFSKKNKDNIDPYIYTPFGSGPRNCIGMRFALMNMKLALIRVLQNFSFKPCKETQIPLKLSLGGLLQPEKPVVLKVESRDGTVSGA

Cc1ccc(-c2c([C@H](OC(C)(C)C)C(=O)O)c(C)c3c4c2cc(C)n4CCN3c2ncc(CN3CCCCC3)cn2)cc1 [Compound I-308]
CYP3A4 (MDZ) MBI, shifted IC (CYP3A4): (−) (When a shifted IC was 1.0 or less, this was defined as negative) | Photohemolysis test, potential of phototoxicity (PI and met-Hb) [1]: (−) (negative criteria (−), PI<10% and changes in absorbance at 630 nm<0.05, respectively) | IC50 (CYP2C9): > 20000 nM | Potency shift value (HIV): 11 | EC50 (HIV (HTLV-IIIB strain)): 1.6 nM | EC90 (HIV (HTLV-IIIB strain)): 4.8 nM | EC50 [2]: 4.3 nM

Cc1ccc(-c2c([C@H](OC(C)(C)C)C(=O)O)c(C)c3c4c2cc(C)n4CCN3c2ncc(CCN3CCOCC3)cn2)cc1 [Compound I-309]
CYP3A4 (MDZ) MBI, shifted IC (CYP3A4): (−) (When a shifted IC was 1.0 or less, this was defined as negative) | Photohemolysis test, potential of phototoxicity (PI and met-Hb) [1]: (−) (negative criteria (−), PI<10% and changes in absorbance at 630 nm<0.05, respectively) | IC50 (CYP2C9): > 20000 nM | Potency shift value (HIV): 13 | EC50 (HIV (HTLV-IIIB strain)): 2.2 nM | EC90 (HIV (HTLV-IIIB strain)): 1.5 nM | EC50 [2]: 4.7 nM
